In ChEMBL document CHEMBL1149799, “Bioactive peroxides as potential therapeutic agents” (Eur J Med Chem, 2008) one finds EC50, IC50 and GI50 data, which are given here for 13 compounds.

The structures appear in SMILES notation. In brackets after ≈: the same amount, converted by molar mass.

Usually IC50 stands for the midpoint of a concentration-inhibition curve. Low values mean greater potency in that assay, high ones weaker potency in that assay. One may read the GI50 as the concentration that inhibits growth by half. Lower therefore signals greater sensitivity of the cells.

Assay [1] concerns A549. Briefly: Cytotoxicity against human A549 cells. Format: functional, cell-based. To be noted: Homo sapiens, A549; read-out: ED50 (the source's name).
The subject of a further assay is P388. Briefly: Cytotoxicity against mouse P388 cells. Particulars: Mus musculus, P388; read-out: ED50 (the source's name). It counts as functional, cell-based.
The next assay has as its system KB. Briefly: Cytotoxicity against human KB cells. To be noted: Homo sapiens, KB; read-out: ED50 (the source's name). Format: functional, cell-based.
The nature of assay [2]: Cytotoxicity against human […] cells. To be noted: read-out: ED50 (the source's name). Format: functional.
A further assay relates to L1210. Briefly: Cytotoxicity against mouse L1210 cells. Format: functional, cell-based. Particulars: Mus musculus, L1210.
The subject of another assay is HeLa. Put plainly: Cytotoxicity against human HeLa cells. It counts as functional, cell-based.
Assay [3] has as its system A549. Put plainly: Cytotoxicity against human A549 cells by soft agar assay. It counts as functional.
In another assay the test system is BT-549. Briefly: Cytotoxicity against human BT549 cells by soft agar assay. Format: functional.
For a further assay, the system named is KM12. Put plainly: Cytotoxicity against human KM12 cells by soft agar assay. Format: functional.
Another assay has as its system MOLT-4. Put plainly: Cytotoxicity against human MOLT4 cells by soft agar assay. Format: functional.
The next assay deals with HL-60. Briefly: Cytotoxicity against human HL60 cells by soft agar assay. Format: functional.
A further assay has as its system 786-0. Briefly: Cytotoxicity against human renal 7860 cells by soft agar assay. Format: functional.
Assay [4] in a line: Cytotoxicity against human IGRO cells by soft agar assay. Format: functional.
A short description of assay [5]: Cytotoxicity against human LOX cells by soft agar assay. Format: functional.

`C=C(C)[C@@H](CC)CC[C@@H](C)[C@H]1CC[C@H]2[C@@H]3C=C[C@@]4(OO)C[C@@H](O)CC[C@]4(C)[C@H]3CC[C@@H]21`: the EC50 in the assay on A549 [1] was found to be 1.1 µg/mL (≈ 2.55 µM); with P388, 0.5 µg/mL (≈ 1.16 µM); in the assay with KB, 1 µg/mL (≈ 2.32 µM); in assay [2], 0.9 µg/mL (≈ 2.09 µM).
On the same counts, the results for `C=C(C)[C@@H](CC)CC[C@@H](C)[C@H]1CC[C@@H]2[C@@H]1CC[C@H]1[C@H]2[C@@H](OO)C=C2C[C@@H](O)CC[C@@]21C` are 0.5 µg/mL (≈ 1.16 µM), 0.4 µg/mL (≈ 0.929 µM), 1 µg/mL (≈ 2.32 µM) and 1 µg/mL (≈ 2.32 µM).
On the same counts, the results for `C=CC(C[C@@H](C)[C@H]1CC[C@H]2[C@@H]3CC=C4C[C@@H](O)CC[C@]4(C)[C@H]3CC[C@]12C)(OO)C(C)C` (stereo partly specified) are 7.1 µg/mL (≈ 16.5 µM), 0.3 µg/mL (≈ 0.697 µM), 1.8 µg/mL (≈ 4.18 µM) and 5.9 µg/mL (≈ 13.7 µM).
The matching figures for `CC(C)/C(=C\COO)CC[C@@H](C)[C@H]1CC[C@@H]2[C@@H]1CC[C@H]1[C@H]2CC=C2C[C@@H](O)CC[C@@]21C`: 2.2 µg/mL (≈ 5.11 µM), 0.5 µg/mL (≈ 1.16 µM), 2.2 µg/mL (≈ 5.11 µM) and 5 µg/mL (≈ 11.6 µM).
For `C=C[C@@H](O)C#CC#C/C=C/C(CCCCCCC)OO` (stereo partly specified) [GINSENOYNE K], the IC50 was 1.8 µg/mL (≈ 6.51 µM) in the assay on L1210 and 10.5 µg/mL (≈ 38 µM) in the assay on HeLa.
For `C=C1CCCC(C)(C)C1(O)CC/C(C)=C/CC[C@]1(C)CC[C@H]([C@@H](C)C(=O)OC)OO1` (stereo partly specified) [EPIMUQUBILIN B], the GI50 with A549 [3], with BT-549, in the assay on KM12, with MOLT-4, in the assay with HL-60 and in the assay on 786-0 was > 5000 nM in each case. In addition, the GI50 in assay [4] was > 5000 nM.
Take `C=C1CCCC(C)(C)C1CC[C@]1(C)CC[C@@H]([C@@H](C)C(=O)O)OO1` (stereo partly specified) [EPINUAPAPUIN B]: the GI50 is > 5000 nM in the assay with A549 [3]; > 5000 nM in the assay with BT-549; > 5000 nM in the assay with KM12; > 5000 nM in the assay with MOLT-4; > 5000 nM in the assay on 786-0; 1730 nM in assay [4].
In the case of `C=C1CCCC(C)(C)C1CC[C@]1(C)CC[C@H]([C@@H](C)C(=O)OC)OO1` (stereo partly specified) [NUAPAPUIN B], the GI50 with MOLT-4 is > 5000 nM; in assay [5], 470 nM; in assay [4], 500 nM.
For the compound `C=C1CCCC(C)(C)C1CC[C@@]1(C)CC[C@H]([C@@H](C)C(=O)O)OO1` (stereo partly specified) [NAPAPUIN B], the GI50 stood at 250 nM in [5] and 630 nM in assay [4].
As to `CC1=C(CC/C(C)=C/CC[C@@]2(C)CC[C@@H]([C@H](C)C(=O)O)OO2)C(C)(C)CCC1` [EPIMUQUBILIN A], the GI50 (in the assay on A549 [3]; in the assay on BT-549; in the assay with KM12; in the assay with MOLT-4; in the assay with HL-60; in [5]) was > 5000 nM each time. In addition, the GI50 (in the assay with 786-0; in assay [4]) was > 5000 nM each time.
For the compound `C=C1CCC[C@H]2[C@](C)(CC[C@]3(C)CC[C@H]([C@@H](C)C(=O)O)OO3)[C@@H](C)CC[C@]12C` [SIGMOSCEPTRELLIN A], the GI50 stood at 960 nM with BT-549 and 120 nM in [4].
As to `C=C1CCC[C@@H]2[C@@H](CC[C@@]3(C)CC[C@H]([C@H](C)C(=O)O)OO3)[C@H](C)CC[C@@]12C` [SIGMOSCEPTRELLIN B], the GI50 stood at 940 nM with A549 [3]; 960 nM with BT-549; 950 nM in the assay on KM12; 840 nM with MOLT-4; 140 nM in the assay with HL-60; 160 nM in assay [5]. In addition, the GI50 was found to be 500 nM in the assay with 786-0 and 100 nM in assay [4].
As for `C=C1CCCC(C)(C)C1(O)CC/C(C)=C/CC[C@]1(C)CC[C@@H]([C@@H](C)C(=O)OC)OO1` (stereo partly specified) [MUQUBILIN B], the GI50 (in the assay with A549 [3]; in the assay with KM12; in the assay on MOLT-4; in the assay on HL-60; in assay [5]; in the assay on 786-0) was > 5000 nM in each case. For the same compound, halving of growth in assay [4] (GI50) required 2420 nM.
